Assay [1] relates to c-myb. Put plainly: qPCR of sorted c-myb:GFP zebrafish embryo cells. Conditions: sorted c-myb:GFP cells from 72 hpf embryos, 1 μM, 6 hours. The assay is classed as cell-based. Here is the method: RA dose response experiments were plated similarly in LDF medium with the appropriate RA concentration. Sorted c-myb:GFP+ cells were collected from 72 hpf transgenic embryos that were homogenized: embryos were finely chopped and dissociated using Liberase (Roche), cell suspensions were filtered, and 58,000 GFP+ live cells were collected using a FACS Aria cell sorter (BD Biosciences). Cells were cultured for 6 hours in LDF medium, and then collected for qPCR.
(§1) Quantitative PCR: Total RNA from cells was extracted using Qiagen RNeasy Mini Kit, and random primed cDNA was generated (Invitrogen, SuperScript III First-Strand Synthesis System). The SsoFast EvaGreen (Biorad) method was used to quantify cDNAs of interest, which are represented as the fold change in transcript level. The amount of cDNA starting material for each sample was normalized in relation to species-specific β-actin expression for zebrafish samples, and both gapdh and β-actin expression for human samples. The primer sequences used were zebrafish myb: forward, 5′-[…]-3′ (SEQ ID No:1), reverse, 5′-[…]-3′ (SEQ ID No:2); zebrafish β-actin: forward, 5′-[…]-3′ (SEQ ID No:3), reverse, 5′-[…]-3′ (SEQ ID No:4); human myb: forward, 5′-[…]-3′ (SEQ ID No:5), reverse, 5′-[…]-3′ (SEQ ID No:6); human gapdh: forward, 5′-[…]-3′ (SEQ ID No:7), reverse, 5′-[…]-3′ (SEQ ID No:8); human β-actin: forward, 5′-[…]-3′ (SEQ ID No:9), reverse, 5′-[…]-3′ (SEQ ID No:10).
Zebrafish quantitative PCR analysis: Stage-matched 72 hpf c-myb:GFP transgenic embryos were finely chopped and dissociated using Liberase (Roche). GFP+ cells were collected using a FACS Aria cell sorter (BD Biosciences). Sorted cells were resuspended in zebrafish blastomere media and plated with 1 μM retinoic acid agonists for 6 hours. Cells were then collected and RNA was isolated using the RNeasy Micro Plus Kit (Qiagen) as per the manufacturer's instructions. cDNA was synthesized using the SuperScript III Kit (Life Technologies). Quantitative PCR was performed in triplicate on a BioRad iQ5 real-time PCR machine using Ssofast EvaGreen Supermix (BioRad). Samples were normalized to β-actin gene. Zebrafish primers used (forward and reverse respectively): actin, 5′-[…]-3′ (SEQ ID No:3) and 5′-[…] -3′ (SEQ ID No:4); c-myb, 5′-[…]-3′ (SEQ ID No:1) and 5′-[…]-3′ (SEQ ID No:2); mpx, 5′-[…]-3′ (SEQ ID No:11) and 5′-[…]-3′ (SEQ ID No:12); GFP, 5′-[…]-3′ (SEQ ID No:13) and 5′-[…]-3′ (SEQ ID No:14).

The test system of assay [2] is c-myb. As to the kind of experiment: U937 time course qPCR of c-myb. In kind it is cell-based, human. As to conditions: for myb levels in U937 by qPCR: 1 μM, 6, 24 and 48 hours. Here is the method:
Cell culture: U937 cells were grown in RPMI 1640 (Life Technologies), 10% heat inactivated FBS, and 1% Penicillin-Streptomycin (Invitrogen). CellTiter-Glo Luminescent Cell Viability Assay (Promega) was performed as per manufacturer's instructions. Cell viability was assessed at day 2.
as §1
U937 time course quantitative PCR analysis: U937 cells were plated with 1 μM retinoic acid agonists for the duration indicated. Cells were then collected and RNA was isolated using the RNeasy Plus Mini Kit (Qiagen) as per the manufacturer's instructions. Further processing was done as described in the section above. Samples were normalized to β-actin gene. Human primers used (forward and reverse respectively): actin, 5′-[…]-3′ (SEQ ID No:9) and 5′-[…]-3′ (SEQ ID No:10); c-myb, 5′-[…]-3′ (SEQ ID No:5) and 5′-[…]-3′ (SEQ ID No:6).
Background: Real-time PCR tracks product formation cycle by cycle.

Assay [3] relates to ACCx6. Put plainly: ACC xenotransplantation trial, ACCx6. In kind it is in vivo, nude mice. Conditions: oral 0.2 mL flat dose: ATRA 4 mg/mL, isotretinoin 30 mg/mL, fenretinide 40 mg/mL. As for the experimental part: (§2) Xenograft experiments: To generate ACC xenografts, 1×10^6 viable ACC cells were injected into the flank of female nude (Foxn1nu) mice for in vivo drug testing of ACCx6, ACCx9, and ACCx11 lines. Once tumors were visible, the mice were randomized to receive vehicle control or drug until reaching a […] tumor volume of 1,000 mm3. The mice in each group were treated with an oral flat dose five times weekly (po qdx5) for four cycles (two days off between cycles). The exact dosing was determined based on an initial MTD tolerability study and published literature reports. Five mice per group were treated for ACCx6 and ACCx9, and four mice per group were treated for ACCx11 (five mice in the control ACCx11 group), and the tumor volumes were quantified. Mice were treated with a flat dose of 0.2 mL orally of: 30 mg/mL isotretinoin; 40 mg/mL fenretinide; 4 mg/mL ATRA for ACCx6 and ACCx11 or 3 mg/mL ATRA for ACCx9. Mouse procedures used in this study were approved by the IACUC at South Texas Accelerated Research Therapeutics (San Antonio, Tex.).
Primagraft experiments: For in vivo drug testing, ACC tumor fragments from host animals were implanted subcutaneously into the flank of nude mice (CRL: ATH/NU). Once tumors reached 125-250 mm3, mice were randomized to receive vehicle or drug diluted in 10:90 DMSO:10% hydroxypropyl-beta-cyclodextrin orally until controls reached a tumor volume endpoint of 1-2 cm3 (4-9 mice per group: x5M1 and x6, 4 treated vs. 9 vehicle controls; x9, 4 treated vs. 5 vehicle controls; x11, 5 treated vs. 8 vehicle controls). Mice were treated with ATRA (ACC x6 and x11: 4 mg/mL, 0.2 mL flat dose; ACC×9: 3 mg/mL, 0.2 mL flat dose) or isotretinoin (30 mg/mL, 0.2 mL flat dose). Tumor growth was monitored and mice weighed twice weekly and studies ended when final group reached tumor volume endpoint. No statistical methods were employed to determine the sample size, and no blinding of investigators was performed. […]

Assay [4] deals with ACCx11. Put plainly: ACC xenotransplantation trial, ACCx11. The assay is classed as in vivo, nude mice. As to conditions: for tumor growth inhibition ACCx11: oral 0.2 mL flat dose: ATRA 4 mg/mL, isotretinoin 30 mg/mL, fenretinide 40 mg/mL. As for the experimental part:
as §2
(§3) Primagraft experiments: For in vivo drug testing, ACC tumor fragments from host animals were implanted subcutaneously into the flank of nude mice (CRL: ATH/NU). Once tumors reached 125-250 mm3, mice were randomized to receive vehicle or drug diluted in 10:90 DMSO:10% hydroxypropyl-beta-cyclodextrin orally until controls reached a tumor volume endpoint of 1-2 cm3 (4-9 mice per group: x5M1 and x6, 4 treated vs. 9 vehicle controls; x9, 4 treated vs. 5 vehicle controls; x11, 5 treated vs. 8 vehicle controls). Mice were treated with ATRA (ACC x6 and x11: 4 mg/mL, 0.2 mL flat dose; ACC×9: 3 mg/mL, 0.2 mL flat dose) or isotretinoin (30 mg/mL, 0.2 mL flat dose). Tumor growth was monitored and mice weighed twice weekly and studies ended when final group reached tumor volume endpoint. No statistical methods were employed to determine the sample size, and no blinding of investigators was performed. After long-term tumor growth inhibition studies were completed, the ATRA treated mice stopped receiving treatment and were maintained longer as indicated to monitor tumor maintenance after treatment cessation. For long-term tumor growth inhibition studies, ACC x6, x9, and x11 models were used and primagrafts collected at the completion of the study. Short-term kinetics studies were also undertaken with ACC x9 and x5M1 primagrafts involving 3 day ATRA treatments. All animal procedures used in this study were approved by the IACUC at START, San Antonio, Tex.

Assay [5] has as its system ACC patient derived xenografts. Put plainly: ACC xenotransplantation trials, average across ACCx6, ACCx9 and ACCx11. Further details: concentration or dose not given beside the values. In kind it is in vivo, nude mice. Conditions: average of ACCx6, ACCx9, ACCx11. As for the experimental part: as §2, §3

The values that follow come from patent US10668039B2, “Methods for treatment of adenoid cystic carcinoma” (THE CHILDREN'S MEDICAL CENTER CORPORATION, priority 2016, dated 2020).

The structures appear in SMILES notation. “Also recorded” adds a separate entry of the source. Where only a bound is given, the exact number is not on record here.

In the case of `CC(C=CC1=C(C)CCCC1(C)C)=CC=C/C(C)=C/C(=O)O` [ATRA, (E)-3,7-dimethyl-9-(2,6,6-trimethyl-1-cyclo-hexen-1-yl)-2,4,6,8-nonatetraenoic acid], the “endogenous myb levels by qPCR” value in assay [1] is given as “significantly downregulate”. For the same compound, in assay [2], the “myb levels in U937 by qPCR” value is listed as “significantly downregulate; also recorded: reduction”. Moreover, the “time to downregulation of c-myb expression” value in assay [2] (U937 cells, 1 μM ATRA) is at most 3 h. Moreover, the “tumor growth inhibition ACCx6” value in assay [3] is given as 81%. Also, the “tumor growth inhibition after discontinuation of treatment, ACC x11” value in assay [4] (after approximately 28 days of treatment) was “sustained”. The “tumor growth inhibition ACCx11” value in assay [4] came to 105%. The “Average tumor growth inhibition across the three models” value in assay [5] and in assay [5] (listed as all-trans retinoic acid (ATRA)) was 88% throughout.
Turning to `CC1=C(/C=C/C(C)=C/C=C/C(C)=C/C(=O)Nc2ccc(O)cc2)C(C)(C)CCC1` [Fenretinide, retinoic acid p-hydroxyanilide], the “endogenous myb levels by qPCR” value in assay [1] was “significantly downregulate”. Besides, the “myb levels in U937 by qPCR” value in assay [2] is listed as “reduction”; in assay [2] (listed as RA p-hydroxyanilide), “significantly downregulate”. Also, the “tumor growth inhibition ACCx6” value in assay [3] was determined as 60%. The “tumor growth inhibition ACCx11” value in assay [4] was 41%. Moreover, the “Average tumor growth inhibition across the three models” value in assay [5] and in assay [5] (listed as fenretinide) was 53% in each case.
`CC1=C(/C=C/C(C)=C/C=C/C(C)=C\C(=O)O)C(C)(C)CCC1` [Isotretinoin, 13-cis-retinoic acid]: in assay [1], the “endogenous myb levels by qPCR” value is on record as “significantly downregulate”. Also, the “myb levels in U937 by qPCR” value in assay [2] was “significantly downregulate; also recorded: reduction”. Besides, the “tumor growth inhibition ACCx6” value in assay [3] is 69%. Moreover, in assay [4], the “tumor growth inhibition ACCx11” value stood at 94%. The “Average tumor growth inhibition across the three models” value in assay [5] and in assay [5] (listed as isotretinoin) was 86% in each case.
